Data: patent publication US7704986B2, “Vitamin D3 analogues for the prevention and treatment of bone disorders” (K.U. Leuven Research and Development, priority 2004, dated 2010)

Legend:
vitamin D receptor (VDR) = target: T1, vitamin D receptor (VDR) (Sus scrofa, UniProt A3RGC1); assay: Affinity for vitamin D receptor: competition with [3H]1α,25(OH)2D3; format: binding; conditions: pig intestinal mucosa supernatant, 4° C. 20 hours; 1α,25(OH)2D3 = 100%
T1 construct: high speed supernatant from intestinal mucosa homogenates obtained from normal pigs; from tissue; host or cells: pig intestinal mucosa (high speed supernatant of homogenate)
T1 sequence (A3RGC1 1-427): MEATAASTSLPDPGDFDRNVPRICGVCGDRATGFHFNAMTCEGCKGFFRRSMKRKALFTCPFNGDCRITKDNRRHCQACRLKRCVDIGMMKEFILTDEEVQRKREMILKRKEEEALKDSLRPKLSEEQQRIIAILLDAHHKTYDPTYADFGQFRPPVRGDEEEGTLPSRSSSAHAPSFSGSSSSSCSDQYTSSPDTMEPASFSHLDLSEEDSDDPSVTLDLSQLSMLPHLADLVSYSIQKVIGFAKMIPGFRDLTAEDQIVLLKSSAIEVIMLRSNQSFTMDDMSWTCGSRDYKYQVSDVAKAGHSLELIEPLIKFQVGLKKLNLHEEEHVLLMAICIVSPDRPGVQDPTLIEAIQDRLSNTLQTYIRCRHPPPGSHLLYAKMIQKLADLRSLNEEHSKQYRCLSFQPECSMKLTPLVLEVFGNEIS
Protocol: The methods used herein to evaluate the binding properties of vitamin D analogues are state of the art techniques used for steroid hormone (including vitamin D) binding assays. […] Incubation was performed at 4° C. for 20 hours and phase separation was obtained by addition of dextran-coated charcoal.

[1] = target: T2, human vitamin D binding protein (hDBP) (Homo sapiens, UniProt P02774); assay: Affinity for human vitamin D binding protein; conditions: hDBP 0.18 μM, 4° C. 3 hours; 1,25(OH)2D3 = 100
T2 sequence (P02774 17-474): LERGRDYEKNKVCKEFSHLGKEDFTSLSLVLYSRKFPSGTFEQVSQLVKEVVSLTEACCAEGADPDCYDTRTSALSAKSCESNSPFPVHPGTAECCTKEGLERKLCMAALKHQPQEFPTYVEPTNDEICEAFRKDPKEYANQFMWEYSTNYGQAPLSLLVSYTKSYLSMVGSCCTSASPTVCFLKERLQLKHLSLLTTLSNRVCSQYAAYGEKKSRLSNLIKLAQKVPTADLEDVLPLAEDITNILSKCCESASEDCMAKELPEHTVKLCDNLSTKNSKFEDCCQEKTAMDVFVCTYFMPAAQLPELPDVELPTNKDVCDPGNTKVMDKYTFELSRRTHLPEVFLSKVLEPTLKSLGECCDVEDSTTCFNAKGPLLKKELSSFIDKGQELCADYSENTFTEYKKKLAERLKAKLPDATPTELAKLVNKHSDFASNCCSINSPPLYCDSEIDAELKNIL
Protocol: Binding of 1α,25(OH)2D3 analogues to hDBP was performed at 4° C. […] Phase separation was then obtained by the addition of 0.5 ml of cold dextran-coated charcoal.

NMRI mice = assay: In vivo activity: serum and femur calcium after 7 daily i.p. injections; conditions: for Serum calcium vs. control (%) / femur calcium vs. control (%): 7 days
Protocol: Eight weeks old, male NMRI mice were fed a vitamin D-replete diet (0.2% calcium, 1% phosphate, 2000 U vitamin D/kg; Hope Farms, Woerden, The Netherlands). Groups of six mice were intraperitoneally injected daily during 7 consecutive days with different doses of 1,25(OH)2D3 (0.2 and 0.4 μg/kg/day) or analogues. The control group was injected with vehicle (arachis oil). The average weight of each group of 6 mice was determined at the beginning and at the end of the experiment. The following parameters were evaluated: serum calcium and femur calcium. Serum calcium was measured by a microcolorimetric assay (Sigma, St. Louis, Mo.). Femurs were removed and femur calcium content was measured in HCl-dissolved bone ash (obtained by heating for 24 hours in an oven at 100° C.), using the same technique as for serum calcium. Student's t-tests were carried out to detect significant differences; p<0.05 was accepted as significant. […]

[2] = Table 6, dose 0.4 μg/kg/day, * in cell = p < 0.05
[3] = dose 0.2 μg/kg/d i.p., * in cell = P < 0.05
[4] = dose 0.4 μg/kg/d i.p., * in cell = P < 0.05

Compound | VDR (relative affinity) (vitamin D receptor (VDR)) [%] | DBP (relative affinity) [1] [%] | Serum calcium vs. control (%) (NMRI mice; [3]) | femur calcium vs. control (%) (NMRI mice; [3]) | Serum calcium vs. control (%) (NMRI mice; [4]) | femur calcium vs. control (%) (NMRI mice; [4]) | further results
CC(C)[C@H](O)CC[C@H](C)[C@@]1(C)CC[C@@H](/C=C/C=C2C[C@@H](O)C[C@H](O)C2)C1(C)C (stereo in doubt) [example 19, (1R,3R)-5-{(E)-3-[(S)-3-((S)-4-hydroxy-1-(S)-methyl-5-methyl-hexyl)-2,2,3-trimethyl-cyclopentyl]-allylidene}-cyclohexane-1,3-diol] | 3 | 4 | – | – | – | – | Serum calcium vs. control (%) (NMRI mice; dose 5 μg/kg/d i.p.): 100%; femur calcium vs. control (%) (NMRI mice; dose 5 μg/kg/d i.p., * in cell = P < 0.05): 115* %
C=C1/C(=C\C=C2/CCC[C@]3(C)[C@@H]([C@H](C)CCCC(C)(C)O)CC[C@@H]23)C[C@@H](O)C[C@@H]1O [1,25(OH)2D3, Calcitriol, reference compound] | – | – | 121* % | 97% | 136* % | 94* % | Femur calcium versus control (%) (NMRI mice; Table 6, dose 0.2 μg/kg/day): 97%; Serum calcium versus control (%) (NMRI mice; Table 6, dose 0.2 μg/kg/day, * in cell = p < 0.05): 121* %; Femur calcium versus control (%) (NMRI mice; [2]): 94* %; Serum calcium versus control (%) (NMRI mice; [2]): 136* %
CCC(O)(CC)CCC[C@H](C)[C@@]1(C)CC[C@@H](/C=C/C=C2C[C@@H](O)C[C@H](O)C2)C1(C)C [(1R,3R)-5-((E)-3-((1S,3R)-3-((1S)-5-ethyl-5-hydroxy-1-methylheptyl)-2,2,3-trimethylcyclopentyl)-2-propenylidene)cyclohexane-1,3-diol] | 60 | <0.1 | – | – | – | – | –
C=C1/C(=C\C=C\[C@@H]2CC[C@](C)([C@H](C)CC#CC(C)(C)O)C2(C)C)C[C@@H](O)C[C@@H]1O [(1R,3S)-5-((Z,2E)-3-((1S,3R)-3-((1R)-5-hydroxy-1,5-dimethyl-3-hexynyl)-2,2,3-trimethylcyclopentyl)-2-propenylidene)-4-methylenecyclohexane-1,3-diol] | 60 | 0 | – | – | – | – | Serum calcium vs. control (%) (NMRI mice; dose 2 μg/kg/d i.p.): 105%; femur calcium vs. control (%) (NMRI mice; dose 2 μg/kg/d i.p., * in cell = P < 0.05): 113* %
C=C1/C(=C\C=C\[C@@H]2CC[C@](C)([C@H](C)CCCC(O)(C(F)(F)F)C(F)(F)F)C2(C)C)C[C@@H](O)C[C@@H]1O [(1R,3S)-5-((Z,2E)-3-((1S,3R)-3-((1R)-6,6,6-trifluoro-5-hydroxy-1-methyl-5-(trifluoromethyl)hexyl)-2,2,3-trimethylcyclopentyl)-2-propenylidene)-4-methylenecyclohexane-1,3-diol] | 30 | 40 | – | – | 98% | 114* % | –
C=C1/C(=C\C=C\[C@@H]2CC[C@](C)([C@H](C)CC#CC(O)(C(F)(F)F)C(F)(F)F)C2(C)C)C[C@@H](O)C[C@@H]1O [(1R,3S)-5-((Z,2E)-3-((1S,3R)-3-((1R)-6,6,6-trifluoro-5-hydroxy-1-methyl-5-trifluoromethyl-3-hexynyl)-2,2,3-trimethylcyclopentyl)-2-propenylidene)-4-methylenecyclohexane-1,3-diol] | 60 | 0 | – | – | 94% | 115* % | –
C=C1/C(=C\C=C\[C@@H]2CC[C@](C)([C@@H](C)CCCC(O)(C(F)(F)F)C(F)(F)F)C2(C)C)C[C@@H](O)C[C@@H]1O [(1R,3S)-5-((Z,2E)-3-((1S,3R)-3-((1S)-6,6,6-trifluoro-5-hydroxy-1-methyl-5-(trifluoromethyl)hexyl)-2,2,3-trimethylcyclopentyl)-2-propenylidene)-4-methylenecyclohexane-1,3-diol] | 60 | 6 | – | – | – | – | Serum calcium vs. control (%) (NMRI mice; dose 0.05 μg/kg/d i.p.): 106%; femur calcium vs. control (%) (NMRI mice; dose 0.05 μg/kg/d i.p., * in cell = P < 0.05): 112* %
C=C1/C(=C\C=C\[C@@H]2CC[C@](C)([C@@H](C)CC#CC(O)(C(F)(F)F)C(F)(F)F)C2(C)C)C[C@@H](O)C[C@@H]1O [(1R,3S)-5-((Z,2E)-3-((1S,3R)-3-((1S)-6,6,6-trifluoro-5-hydroxy-1-methyl-5-trifluoromethyl-3-hexynyl)-2,2,3-trimethylcyclopentyl)-2-propenylidene)-4-methylenecyclohexane-1,3-diol] | 75 | 2 | 103% | 117* % | – | – | –
C=C1/C(=C\C=C\[C@@H]2CC[C@](C)([C@@H](C)CC[C@@H](O)C(C)C)C2(C)C)C[C@@H](O)C[C@@H]1O [example 20, (1R,3S)-5-((Z,2E)-3-((1S,3R)-3-((1S,4R)-4-hydroxy-1,5-dimethylhexyl)-2,2,3-trimethylcyclopentyl)-2-propenylidene)-4-methylenecyclohexane-1,3-diol] | 9 | 4 | – | – | – | – | Serum calcium vs. control (%) (NMRI mice; dose 10 μg/kg/d i.p.): 99%; femur calcium vs. control (%) (NMRI mice; dose 10 μg/kg/d i.p., * in cell = P < 0.05): 111* %
C=C1/C(=C\C=C\[C@@H]2CC[C@](C)([C@@H](C)CC[C@H](O)C(C)C)C2(C)C)C[C@@H](O)C[C@@H]1O [example 24, (1R,3S)-5-((Z,2E)-3-((1S,3R)-3-((1S,4S)-4-hydroxy-1,5-dimethylhexyl)-2,2,3-trimethylcyclopentyl)-2-propenylidene)-4-methylenecyclohexane-1,3-diol] | 20 | 4 | 98% | 112* % | – | – | –
